Data from ChEMBL document CHEMBL5725801, “Fused heterocyclic compounds as CaM kinase inhibitors” (2018).

experiment: CaMKII delta Biochemical Assay: The biochemical activity of recombinant CaMKIIδ was measured by monitoring the phosphorylation of a target peptide using Homogenous Time Resolved Fluorescence (HTRF) technology from CisBio Bioassays. 10 pM […] (Life Technologie Corporation) was incubated for 1 hour with 110 nM calmodulin (EMD Millipore), 1 μM Biotin-STK1 (target peptide, CisBio Bioassays) and 12 μM ATP (Sigma-Aldrich) in a buffer containing 20 mM Hepes pH7.2, 10 mM MgCl2 and 1 mM CaCl2 as well as the compound to be tested or DMSO at a final concentration of 0.6%. The reaction was stopped with the addition of the detection buffer (containing EDTA) with Eu-cryptate labeled anti-phospho-STK1 antibody (CisBio Bioassays) and 125 nM XL665 labeled streptavidin (CisBio Bioassays).

Q: Which IC50 does the source give for `CCN1C[C@@H](F)C[C@H]1CNC(=O)c1ccnc(-c2cnn3ccc(-c4cccs4)nc23)c1` here?
A: 7.07 nM

experiment: CaMKII Cell-Based Activity: CaMKII activity in neonatal rat ventricular myocytes (NRVM) was measured by monitoring the phosphorylation level of phospholamban using high-content imaging. NRVMs were plated in a clear bottom 384-well plate in medium supplemented with 10% fetal bovine serum (FBS) and incubated at 37° C., 5% CO2 overnight. The medium was changed to a serum-free medium and compounds were dosed to the cells. The cells were incubated at 37° C., 5% CO2 for 4 hours and were then treated with 100 nM ATX-II (Alomone Labs) to activate CaMKII. 10 minutes after the addition of ATX-II, the cells were fixed with 4% formaldehyde followed by permeabilization with 0.1% triton X100. The fixed cells were stained with an anti-phospho-phospholamban primary antibody (Santa Cruz Biotechnology) and an Alexa488-labeled anti-rabbit IgG secondary antibody (Life Technologies Corporation) as well as Hoechst 33342 (Life Technologies Corporation). The cells were imaged using an ArrayScan VTI (Cellomics) and analyzed for cells containing a positive fluorescent signal at 485 nm, reported as % responder. The % responders were plotted against the compound concentration to determine the compounds EC50.

Q: For `CCN1C[C@@H](F)C[C@H]1CNC(=O)c1ccnc(-c2cnn3ccc(-c4cccs4)nc23)c1`, which EC50 is on record?
A: 53.4 nM

Q: With `CCN(CC)[C@@H](C)CNC(=O)c1cc(-c2cnn3ccc(-c4cccs4)nc23)nc(N2CC[C@H](N)C2)c1` as the molecule, how does the EC50 read?
A: 68.7 nM

Q: Which EC50 does the source give for `CCN(CC)[C@@H](C)CNC(=O)c1cc(OCC2(C)COC2)nc(-c2cnn3ccc(-c4cccs4)nc23)c1` here?
A: 55.3 nM

Q: With `CCN(CC)[C@@H](C)CNC(=O)c1cc(NCc2cc[nH]n2)nc(-c2cnn3ccc(-c4cccs4)nc23)c1` as the molecule, how does the EC50 read?
A: 54.3 nM

Q: For `CCCC(N)CNC(=O)c1ccnc(-c2cnn3ccc(-c4ccccc4)nc23)c1` (configuration not stated), which EC50 is on record?
A: 11.8 nM

Q: With `CC(C)C(N)CNC(=O)c1ccnc(-c2cnn3ccc(-c4ccccc4)nc23)c1` (configuration not stated) as the molecule, how does the EC50 read?
A: 44.1 nM
